What was measured:
Assay in all cases: relative viability (nuclei count vs DMSO), 5 days (fraction); higher = more cells survive
[1] = compound: COC1=CC=C(C=C1)CN2C=CC3=C2C=C(C=C3)C(=O)NO + C[C@]1(O)C[C@@H](c2nc(-c3ccc4ccc(-c5ccccc5)nc4c3)c3c(N)nccn32)C1 [Linsitinib] (partner 1 µM)
Procedure, shortened: (§1)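 Lung cancer cell lines, seeded in 1536-well plates, were treated the following day by pin tool with a single drug or with five library-drug doses (not always all listed) in √10 steps on top of a fixed anchor-drug dose. Cells were fixed and nuclei stained in one step after 5 days, and nuclei were counted. Relative viability is the nuclei count for treated wells divided by that for vehicle wells, reported as medians of duplicate plates.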

[2] = compound: C[C@]1(c2nc3c(C(N)=O)cccc3[nH]2)CCCN1 [Veliparib] + Nc1nc2[nH]cc(CCc3ccc(C(=O)N[C@@H](CCC(=O)O)C(=O)O)cc3)c2c(=O)[nH]1 [Pemetrexed] (partner 0.2 µM)
Procedure, shortened: as §1

[3] = compound: C[C@]1(c2nc3c(C(N)=O)cccc3[nH]2)CCCN1 [Veliparib] + C[C@@H](Oc1cc(-c2cnn(C3CCNCC3)c2)cnc1N)c1c(Cl)ccc(F)c1Cl [Crizotinib] (partner 1 µM)
Procedure, shortened: as §1

[4] = compound: C[C@]1(c2nc3c(C(N)=O)cccc3[nH]2)CCCN1 [Veliparib] + O=C(c1cc(Cc2n[nH]c(=O)c3ccccc23)ccc1F)N1CCN(C(=O)C2CC2)CC1 [Olaparib] (partner 8 µM)
Procedure, shortened: as §1

Cell Line	relative viability ([1]; first compound 0.08 µM)	relative viability ([1]; first compound 0.253 µM)	relative viability ([1]; first compound 0.8 µM)	relative viability ([1]; first compound 2.53 µM)	relative viability ([1]; first compound 8 µM)	relative viability ([2]; first compound 0.02 µM)	relative viability ([2]; first compound 0.06325 µM)	relative viability ([2]; first compound 0.2 µM)	relative viability ([2]; first compound 0.6325 µM)	relative viability ([2]; first compound 2 µM)	relative viability ([3]; first compound 0.02 µM)	relative viability ([3]; first compound 0.06325 µM)	relative viability ([3]; first compound 0.2 µM)	relative viability ([3]; first compound 0.6325 µM)	relative viability ([3]; first compound 2 µM)	relative viability ([4]; first compound 0.02 µM)	relative viability ([4]; first compound 0.06325 µM)	relative viability ([4]; first compound 0.2 µM)	relative viability ([4]; first compound 0.6325 µM)	relative viability ([4]; first compound 2 µM)
NCI-H23	0.406	0.619	0.564	0.599	0.544	0.615	0.593	0.623	0.747	0.622	0.52	0.521	0.606	0.596	0.625	0.34	0.338	0.345	0.355	0.314
Calu-6	–	0.961	0.949	0.906	0.902	–	–	–	–	–	0.817	0.735	0.882	0.691	0.796	0.646	0.565	0.606	0.491	0.664
LC-2-ad	0.783	0.851	0.873	0.999	0.804	0.277	0.277	0.273	0.263	0.287	0.458	0.396	0.483	0.46	0.443	0.744	0.68	0.662	0.756	0.681
HARA	0.126	1.01	1.01	1.07	0.962	0.254	–	0.219	0.265	0.261	1.03	0.996	0.954	0.848	1.06	0.931	–	0.857	0.858	0.722
NCI-H727	0.214	0.355	0.298	0.256	0.298	–	–	–	–	–	0.814	0.685	0.855	0.668	0.764	0.601	0.549	0.739	0.665	0.748
NCI-H1299	0.952	0.976	0.994	0.977	0.959	–	–	–	–	–	1.04	0.945	0.95	0.928	0.948	1.03	0.949	0.925	0.963	1.03
NCI-H2170	–	–	–	–	–	0.256	0.244	0.253	0.237	0.273	1.23	1.24	1.21	1.14	1.14	0.573	0.587	0.58	0.586	0.586
EBC-1	–	0.883	0.941	0.907	0.768	–	–	–	–	–	0.194	0.231	0.213	0.186	0.233	0.748	0.622	0.731	0.655	0.756
ABC-1	–	0.924	0.789	0.732	0.885	–	–	–	–	–	–	0.987	0.846	0.953	0.962	–	–	0.8	0.874	0.586
ChaGo-K-1	–	–	–	–	–	0.227	0.266	0.245	0.246	0.257	–	1.05	1.08	1.06	1.09	0.362	0.447	0.429	0.387	0.443
NCI-H2342	–	–	–	–	–	0.675	0.721	0.744	0.784	0.771	–	–	–	–	–	0.383	0.461	0.469	0.41	0.474
NCI-H1703	–	0.783	1.09	0.69	1.16	–	–	–	–	–	0.835	0.76	1.06	0.778	0.75	0.514	0.292	0.397	0.56	0.501
NCI-H1650	–	–	–	–	–	0.388	0.332	0.373	0.331	0.362	–	0.899	1.11	0.81	0.919	0.918	0.679	0.729	0.707	0.757
NCI-H522	–	–	–	–	–	0.981	0.814	0.761	1.16	0.785	–	–	–	–	–	0.678	0.593	0.667	0.57	0.566
NCI-H1563	1.1	1.18	1.26	1.18	1.12	0.694	0.766	0.742	0.728	0.685	0.91	0.762	0.89	0.857	0.808	–	–	–	–	–
NCI-H1648	–	–	–	–	–	1	–	–	1.02	0.709	–	–	–	–	–	0.948	–	–	0.7	0.919
SW 900	–	–	–	–	–	–	0.492	0.493	0.467	0.511	–	–	–	–	–	–	0.724	0.939	0.722	0.818
NCI-H1395	0.773	1.28	1.11	1.08	0.918	0.762	0.886	0.768	0.792	0.653	–	–	–	–	–	0.435	0.395	0.448	0.415	0.471
IA-LM	0.613	0.587	0.492	0.698	0.663	–	–	–	–	–	0.947	0.689	0.743	0.753	0.75	0.896	0.702	0.743	0.678	0.74
NCI-H1793	0.934	0.941	1.09	0.976	0.86	0.755	0.763	0.935	1.07	0.875	–	–	–	–	–	0.954	0.976	0.827	0.851	1.01
A549	–	0.678	0.595	0.697	0.558	–	–	–	–	–	0.768	0.699	0.792	0.61	0.891	0.308	0.375	0.223	0.314	0.407
